Test results: paper PMC7175278, “2-Oxoester Phospholipase A2 Inhibitors with Enhanced Metabolic Stability” (Biomolecules, 2020)

Target: T1, GIVA cPLA2 (Homo sapiens, UniProt P47712)
T1 construct: gene PLA2G4A
T1 sequence (P47712 1-749): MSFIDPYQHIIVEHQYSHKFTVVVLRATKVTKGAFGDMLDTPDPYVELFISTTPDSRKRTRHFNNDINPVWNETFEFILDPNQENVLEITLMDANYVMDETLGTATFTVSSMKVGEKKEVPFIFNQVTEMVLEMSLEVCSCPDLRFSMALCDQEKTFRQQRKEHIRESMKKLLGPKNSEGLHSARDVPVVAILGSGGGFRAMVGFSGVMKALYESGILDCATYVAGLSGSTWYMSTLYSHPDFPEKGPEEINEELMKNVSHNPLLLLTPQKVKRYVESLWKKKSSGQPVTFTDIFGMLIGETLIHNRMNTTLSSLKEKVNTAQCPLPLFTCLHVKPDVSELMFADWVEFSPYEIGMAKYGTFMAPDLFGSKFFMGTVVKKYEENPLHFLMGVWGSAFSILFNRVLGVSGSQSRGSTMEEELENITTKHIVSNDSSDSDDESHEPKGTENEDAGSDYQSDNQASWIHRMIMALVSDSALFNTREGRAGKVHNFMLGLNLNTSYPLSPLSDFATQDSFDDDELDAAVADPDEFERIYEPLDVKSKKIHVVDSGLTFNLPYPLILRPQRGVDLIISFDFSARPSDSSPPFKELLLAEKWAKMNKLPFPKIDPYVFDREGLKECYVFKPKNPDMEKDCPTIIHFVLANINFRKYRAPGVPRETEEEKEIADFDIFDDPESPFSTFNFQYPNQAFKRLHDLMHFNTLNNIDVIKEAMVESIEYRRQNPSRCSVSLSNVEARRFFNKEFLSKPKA
Assay: LC/MS lipidomics-based mixed micelle assay with recombinant human enzyme, dose-response
Assay type: biochemical

GIVA cPLA2 / XI(50)	SMILES
0.00036 ± 0.00007 mole fraction (XI(50))	CC(CCCc1ccc(-c2ccccc2)cc1)C(=O)C(=O)OCCCCC(=O)O (centres unmarked) [17a, 5-((6-([1,1’-Biphenyl]-4-yl)-3-methyl-2-oxohexanoyl)oxy)pentanoic acid]
0.0012 ± 0.00008 mole fraction (XI(50))	CC(CCCC(=O)O)OC(=O)C(=O)CCCCc1ccc(-c2ccccc2)cc1 (centres unmarked) [17b, 5-((6-([1,1’-Biphenyl]-4-yl)-2-oxohexanoyl)oxy)hexanoic acid]
